Source: US20100267067A1, “Synthase Inhibitor Screening Method” (priority 2007, published 2010)

What was measured:
Assay type in all cases: cell-based
[1] = test system: Bacillus strain secreting a wildtype protease denoted '10R' (SOL000); assay: Plate growth of Bacillus secreting wildtype 10R protease on LB agar with MGMM and CMA; details: for Growth on the plate, 10R WT (SOL000): LB agar with MGMM, 37° C. overnight
From the text: (§1) We wanted to find a concentration of carboxymethoxylhydroxylamine (CMA) that allows only protease-secreting Bacillus colonies to grow in the presence of the small peptide met-gly-met-met (MGMM). CMA inhibits the methionine synthesis in Bacillus cells, which severely hampers their growth. However, in the presence of MGMM, protease-secreting Bacillus cells can grow on CMA containing media. Secreted proteases degrade the MGMM peptide thereby releasing free methionine residues, which are taken up by the protese-secreting Bacillus cells and used for protein synthesis.
(§2) 500 ml LB agar was melted and placed in an incubator until the agar reached 60° C. 5 ml met-gly-met-met (MGMM, Sigma M4786-250MG) (5 mg/ml) and 300 microliter 1% chloramphenicol (in 70% ethanol) was added to the agar.
(§3) 4×25 ml media was transferred with a 25 ml Stripette™ to clean 25 ml Nunc™ containers. Different amounts of CMA (Aldrich C13408-1 g) were added to the media as indicated in the scheme below. All 25 ml media was poured into 9 cm petri dishes and dried in a clean bench; except for the “6×CMA on the plate” where 25 ml media was poured on a 9 cm petridish and dried and 600 microliter CMA (0.56 mg/ml) was spread on the plate afterwards.
(§4) The two micro-organisms were streaked on the 6 different types of plates. All plates were incubated upside down at 37° C. overnight.

[2] = test system: Bacillus strain secreting inactive 10R protease (S143A) (SOL218); assay: Plate growth of Bacillus secreting inactive 10R protease on LB agar with MGMM and CMA; details: LB agar with MGMM, 37° C. overnight
From the text: as §1, §2, §3, §4

[3] = test system: Saccharomyces cerevisiae JG 169; assay: Yeast growth on triglyceride (olive oil) plates containing cerulenin; details: 5 mg cerulenin per approx. 510 ml SC-ura agar with olive oil; pENI4158 (lipase) vs pENI3659 (control) transformants
Experimental: Plasmids pENI3659 (control) and pENi4158 (with lipase gene) were transformed into the yeast strain Saccharomyces cerevisiae JG 169 (MAT-alpha; ura 3-52; leu 2-3, 112; his 3-D200; pep 4-113; prc1::HIS3; prb1::LEU2). The transformed yeast was streaked onto plates containing cerulenine and olive oil.
To 450 ml SC-ura-basic agar was added 50 ml 20% glucose and 10 ml olive oil. An UltraTurax™ […] (IKA Labortechnik, Germany) was used to disperse the olive oil. 5 mg cerulenin dissolve in 1 ml ethanol was added and 500 microliter ampicillin (100 mg/ml)). This mix was poured into […] 9 cm petri dishes.
SC-ura-basic agar: 7.5 g Yeast Nitrogen Base without amino acids, 11.3 g Bernstein, 6.8 g NaOH, 5.6 g casamino acids, 0.1 g L-tryptophan, 20 g agar in total of 900 ml water.

[4] = 5xCMA in the plate, 11.2 mg/L CMA
[5] = 6xCMA in the plate, 13.4 mg/L CMA
[6] = 6xCMA on the plate (spread on dried plate), 13.4 mg/L CMA
[7] = 7xCMA in the plate, 15.7 mg/L CMA
[8] = 8xCMA in the plate, 17.9 mg/L CMA

O=C(O)CONO [CMA, carboxymethoxylhydroxylamine]
Growth on the plate, 10R WT (SOL000) [1, 4]: Yes
Growth on the plate, 10R WT (SOL000) [1, 5]: No
Growth on the plate, 10R WT (SOL000) [1, 6]: No
Growth on the plate, 10R WT (SOL000) [1, 7]: No
Growth on the plate, 10R WT (SOL000) [1, 8]: No
Growth of Bacillus transformant cells which secrete active 10R protease, versus those that do not ([1]; LB agar with 11.2 mg/L CMA as well as MGMM in the plate, summary of Table 3): only those can grow
Growth on the plate, 10R inactive (SOL218) [2, 4]: No
Growth on the plate, 10R inactive (SOL218) [2, 5]: No
Growth on the plate, 10R inactive (SOL218) [2, 6]: No
Growth on the plate, 10R inactive (SOL218) [2, 7]: No
Growth on the plate, 10R inactive (SOL218) [2, 8]: No

C/C=C/C/C=C/CCC(=O)[C@H]1O[C@H]1C(N)=O [cerulinine, cerulenin]
Growth of transformed yeast on the triglyceride plates in the presence of cerulinine [3]: Only yeast cells transformed with pENI4158, which express active lipase, were able to grow
